Results from patent US20110319360A1, “Method of including apoptosis/Cell death in leukemia cell using a purine nucleoside analogue” (U.S. Department of Veterans Affairs, priority 2010, published 2011).
Several values for one entry are separate records, joined by “and”; a condition that tells them apart may be missing. Identical values can stand only once. Like-named read-outs stand apart in the source and are kept apart here.

Experiments:
CLL cells [1] = assay: MTS cytotoxicity assay on primary CLL cells; assay type: cell-based; settings: Homo sapiens, CLL cell
Method: On the same day that heparin-anticoagulated venous blood was collected from participants, CLL cells were purified by methods described previously (Reference 11). Briefly, CLL cells were isolated from whole blood using the RosetteSep® B-cell enrichment cocktail (Stem Cell Technologies, Vancouver, BC, Canada) together with ficoll-Hypaque density gradient centrifugation. This method yielded CLL cell purity of greater than 95% CD5^+CD19^+ B-cells.
(§1) 2.5×10^5 CLL cells were incubated in triplicate or quadruplicate in a 96-well tissue culture plate (Costar, Corning, N.Y.) with serial dilutions of LMP-420, fludarabine, and/or recombinant TNF-alpha (R&D Systems, Minneapolis, Minn.) in Hybridoma serum free media (SFM) (GIBCO/Invitrogen, Carlsbad, Calif.) containing 10% heat-inactivated fetal bovine serum (FBS) (Sigma) at 37° C. with 5% CO2. After 72 hours, 20 μl CellTiter 96® AQueous One Solution Cell Proliferation Assay (Promega, Madison, Wis.) MTS (3-(4,5 dimethylthiazol-2-yl)-5-(3-carboxymethoxyphenyl-2-(4-sulfophenyl)-2H-tetrazolium) reagent was added to each well and the absorbance was read at 490 nm on a Thermomax microplate reader (Molecular Devices, Sunnyvale, Calif.). We calculated fractional cytotoxicity as performed previously (Reference 12), comparing absorbance at 490 nm from treated cells to control cells incubated with media alone.
(§2) The concentration effective at killing 50% of CLL cells compared to media alone (ED50) was calculated when 50% fractional cytotoxicity occurred within the range of serial dilutions tested (Reference 12). If the ED50 fell below or above this range, it was set to either the lowest or the highest concentration tested, respectively, for the purposes of statistical analyses and graphical representation.

normal PBMCs = assay: MTS cytotoxicity assay on PBMCs from normal donors; assay type: cell-based, human; settings: for EC50: Homo sapiens, PBMC
Method: For toxicity studies involving normal blood cells, normal volunteers were enrolled in an IRB-approved protocol for blood collection. PBMCs were isolated from heparin-anticoagulated blood by ficoll-Hypaque density gradient centrifugation.
as §1, §2

human hERG = molecular target: T1, human hERG (Homo sapiens, UniProt Q12809); assay: hERG [3H] Astemizole radioligand binding; settings: 1.5 nM [3H] Astemizole, HEK-293 cells, 60 min, 25° C.; read-out: IC50 for inhibition of radioligand binding to the cardiac potassium channel
T1 construct: host or cells: HEK-293
Method: This assay was performed by MDS Pharma Services. Human recombinant HEK-293 cells over-expressing the human hERG receptor were incubated for 60 min at 25° C. with 1.5 nM [^3H] Astemizole in the presence or absence of the indicated concentrations of LMP-420. Nonspecific binding (<10%) was determined by binding of radioligand in 10 μM Astemizole. All samples were determined in duplicate.

CLL cells [2] = assay: Annexin V / 7-AAD apoptosis assay on CLL cells; assay type: cell-based, human; settings: for median percent drug-specific apoptosis: 72-hour; for median drug-specific apoptosis: n=43
Method: Cells were cultured in either of two different media: Hybridoma SFM with 10% FBS or RPMI 1640 medium (Sigma) supplemented with 5% heat-inactivated human AB serum (Sigma), 50 units/ml penicillin, 50 μg/ml streptomycin, 2 mM L-glutamine, 25 mM HEPES (N2-hydroxyethylpiperazine-N′-2-ethanesulfonic acid), 100 μM MEM non-essential amino acids, and 1 mM sodium pyruvate (GIBCO). CLL cell sensitivity to LMP-420 was not affected by culture media, as determined by direct comparison of the apoptotic effects observed in both media for seven samples. After drug activity in the presence of human AB serum was confirmed, further studies were performed in Hybridoma SFM with 10% FBS.
CLL cells were cultured at 2×10^6 cells/ml in a volume of 100 μl/well in a U-bottom 96-well tissue culture plate (BD Biosciences, San Jose, Calif.) with either vehicle control or with drug. After 24, 48, or 72 hours of incubation, cells were analyzed for apoptosis by three different methods. For the annexin-based assay, 100 μl of Guava Nexin Reagent (Millipore, Billerica, Mass.) was added for 20 min. Cells were analyzed for annexin V-PE and 7-AAD staining with flow cytometric analysis by the Guava EasyCyte™ Plus system (Millipore). To facilitate comparison of samples with different levels of spontaneous apoptosis, drug-specific apoptosis is reported. Drug-specific apoptosis excludes background spontaneous apoptosis and was calculated as follows: 100%×(drug-induced apoptosis−spontaneous apoptosis)/(100−spontaneous apoptosis) (Reference 13).

CD19-positive B-cell = assay: Annexin V apoptosis of normal B-lymphocytes in PBMCs; assay type: cell-based, human; settings: 72 hours
Method: (§3) PBMCs were cultured at 10^6 cells/ml in a 12-well tissue culture plate. Cells were treated for 72 hours with vehicle control or drug for 72 hours, then harvested as above for staining. PBMCs were resuspended at 2×10^5 cells/tube in 100 μl buffer (HBSS, 0.5% bovine serum albumin, 0.1% sodium azide) and incubated for 30 min with CD3-FITC or CD19-FITC antibodies according to the manufacturer's protocol (BD Biosciences). Cells were then incubated with PE-annexin V and 7-AAD (BD Biosciences) in annexin V binding buffer (BD Biosciences) for 15 minutes prior to analysis of apoptosis on the Guava EasyCyte™ Plus system.

CD3-positive T-cell = assay: Annexin V apoptosis of normal T-lymphocytes in PBMCs; assay type: cell-based, human; settings: 72 hours
Method: as §3

[3] = tested on: CD34+ hematopoietic progenitor cells (erythroid colonies); assay: Colony formation assay, erythroid colonies; assay type: cell-based, human
Method: CD34^+ hematopoietic progenitor cells were isolated from PBMCs from two healthy donors using the CD34 Microbead Kit (Miltenyi Biotec, Auburn, Calif.). 10^3 CD34^+-enriched cells were cultured in a 35 mm culture plate (1000 cells/plate) with or without LMP-420 or fludarabine in 1.1 ml Human Methylcellulose Complete Media (R&D Systems) according to the manufacturer's protocol. Plates were incubated for 14 days at 37° C. in humidified 5% CO2. Each treatment group was tested in triplicate. Colonies on plates were scored by two independent observers, blinded to the treatment groups, by microscopic evaluation under 10× and 20× power. Colonies were categorized as being of either erythroid or myeloid lineage.

[4] = Prior in vivo toxicity studies in rodents

T1 sequence (Q12809 whole entry): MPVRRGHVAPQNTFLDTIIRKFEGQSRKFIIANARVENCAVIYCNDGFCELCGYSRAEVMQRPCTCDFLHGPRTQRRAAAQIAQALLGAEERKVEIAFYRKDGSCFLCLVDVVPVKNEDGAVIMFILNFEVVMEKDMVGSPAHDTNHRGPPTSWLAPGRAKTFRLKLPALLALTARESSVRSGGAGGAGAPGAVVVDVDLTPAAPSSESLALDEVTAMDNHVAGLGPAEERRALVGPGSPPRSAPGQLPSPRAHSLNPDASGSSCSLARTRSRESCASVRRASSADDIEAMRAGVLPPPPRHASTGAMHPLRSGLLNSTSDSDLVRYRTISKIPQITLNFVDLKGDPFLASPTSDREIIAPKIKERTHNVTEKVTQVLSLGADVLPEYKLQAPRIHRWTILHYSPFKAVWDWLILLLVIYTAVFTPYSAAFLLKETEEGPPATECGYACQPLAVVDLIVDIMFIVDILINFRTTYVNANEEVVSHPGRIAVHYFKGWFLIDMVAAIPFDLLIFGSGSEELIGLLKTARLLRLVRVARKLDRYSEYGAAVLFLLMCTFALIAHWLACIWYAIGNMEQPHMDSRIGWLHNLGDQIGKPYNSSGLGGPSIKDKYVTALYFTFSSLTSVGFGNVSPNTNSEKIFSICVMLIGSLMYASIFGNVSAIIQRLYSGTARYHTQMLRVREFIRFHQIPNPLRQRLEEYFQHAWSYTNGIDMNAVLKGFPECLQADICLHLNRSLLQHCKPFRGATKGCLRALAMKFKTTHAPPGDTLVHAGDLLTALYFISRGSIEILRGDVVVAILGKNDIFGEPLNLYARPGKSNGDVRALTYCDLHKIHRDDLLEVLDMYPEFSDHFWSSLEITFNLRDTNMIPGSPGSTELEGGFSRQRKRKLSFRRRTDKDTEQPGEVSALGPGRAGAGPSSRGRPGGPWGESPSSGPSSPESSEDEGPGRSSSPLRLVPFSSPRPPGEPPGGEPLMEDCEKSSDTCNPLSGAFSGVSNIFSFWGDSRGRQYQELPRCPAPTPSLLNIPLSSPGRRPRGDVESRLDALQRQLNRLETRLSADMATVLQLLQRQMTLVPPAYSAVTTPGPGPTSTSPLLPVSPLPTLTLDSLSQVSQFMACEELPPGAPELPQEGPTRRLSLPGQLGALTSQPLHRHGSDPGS

Nc1nc(Cl)c2ncn(CCCCCB(O)O)c2n1 [LMP-420, 2-amino-6-chloro-9-[5(dihydroxyboryl)-pentyl] purine]
EC50 (CLL cells [1]; 72 h, five patients of the nucleosome ELISA set, 72 hours, read-out: mean ED50, fractional cytotoxicity by MTS): ~0.85 µM | EC50 (CLL cells [1]; 72 h, primary CLL cells, 72 hours, MTS, mean of 35 samples, read-out: mean concentration required to induce 50% cytotoxicity (ED50)): 0.245 µM | EC50 (CLL cells [1]; CLL samples with favorable risk cytogenetic aberrations, n=27, read-out: median MTS ED50): 0.162 µM | EC50 (CLL cells [1]; CLL samples with favorable risk cytogenetic aberrations, n=27, read-out: range of MTS ED50): 0.027 to 2.52 µM | EC50 (CLL cells [1]; CLL samples with poor risk cytogenetic aberrations, n=5, read-out: median MTS ED50): 0.332 µM | EC50 (CLL cells [1]; mean value from the MTS experiments, read-out: ED50 (μM), CLL): 0.25 µM | potentiation of fludarabine cytotoxicity on normal PBMCs (normal PBMCs; 62 or 250 nM LMP-420 with fludarabine, 72 hours, n=3): did not potentiate | EC50 (normal PBMCs; 72 hours, MTS, not reached at up to 512 μM, read-out: median ED50 on normal PBMCs): > 512 µM | EC50 (normal PBMCs; mean, PBMCs from healthy blood donors (n = 3-6), read-out: ED50 (μM), PBMC): > 512 µM | IC50 (human hERG): > 100 µM | median percent drug-specific apoptosis (CLL cells [2]; 5,000 nM, mutated IgVH subgroup (n=30)): 34% | median percent drug-specific apoptosis (CLL cells [2]; 5,000 nM, unmutated IgVH subgroup (n=10)): 59% | median drug-specific apoptosis (CLL cells [2]; 5,000 nM, 24 hours): 15% | median drug-specific apoptosis (CLL cells [2]; 5,000 nM, 48 hours): 28% | median drug-specific apoptosis (CLL cells [2]; 5,000 nM, 72 hours): 32% | apoptosis, range (CLL cells [2]; 5,000 nM, patients with 11q22 deletion or complex cytogenetics (n=3)): 13 to 58% and 13-58% | EC50 (CLL cells [2]; Homo sapiens, CLL cell, 72 hours, five-patient sample set, read-out: mean dose required for 50% drug-specific apoptosis by annexin V staining): 5 µM | staining indicative of primary necrosis (7-AAD-positive, annexin-V-negative) (CLL cells [2]; all samples, 72 hours): < 2% | samples in which apoptosis was induced (49 of 50) (CLL cells [2]; highest dose (5,000 nM), 72 hours): 98% | average percent drug-specific apoptosis, B-cells (CD19-positive B-cell; 1 μM, n=3): 11% | apoptosis in normal B-lymphocytes (CD19-positive B-cell; concentrations up to 90 μM): did not induce significant apoptosis | average percent drug-specific apoptosis, T-cells (CD3-positive T-cell; 1 μM, n=3): −1% | apoptosis in normal T-lymphocytes (CD3-positive T-cell; concentrations up to 90 μM): did not induce significant apoptosis | erythroid colony IC50 relative to CLL ED50 [3]: greater than 40 fold | IC50 ([3]; Homo sapiens, 336 h, 14 days, healthy donors (n=2), read-out: mean IC50 for normal erythroid colony formation): 10 µM | peak plasma level at non-toxic doses [4]: greater than 10 μM
